“Also recorded” adds a separate entry of the source.
Tests used:
DMM mice [1] = experiment: DMM drug treatment study: OARSI scoring and histomorphometry of knee cartilage; type: in vivo, mouse; conditions: for cartilage degeneration (Safranin-O and Fast Green histology) / chondro-protective and matrix-regenerative effects (overall) / total number of chondrocytes / uncalcified cartilage area: daily ip week 8 to 12; for OARSI score / number of matrix producing chondrocytes: daily ip week 8 to 12, versus vehicle
Procedure: Drug treatment studies: In twelve-week old male wild type C57BL/6 mice that received DMM surgeries, vehicle (PBS), paroxetine (5 mg/kg/day), fluoxetine (5 mg/kg/day), gallein (10 mg/kg/day) or indomethacin (2.5 mg/kg/day) were administered daily by ip injection. Drug treatment was initiated 8 weeks following DMM to determine the role of GRK2 signaling in the progression of OA.
Twelve-week-old male mice were administered DMM surgery to the right knee and sham surgery to the left knee as described (S. S. Glasson, Osteoarthritis. Cartilage. 15, 1061-1069 (2007)). Briefly, mice were anesthetized via intraperitoneal injection of ketamine (60 mg/kg) and xylazine (4 mg/kg), and a 5-mm-long incision was made on the medial side of the knee. Under a dissecting microscope, an incision was made along the medial side of the patellar tendon, opening the joint space. Using a #11 scalpel, the medial meniscotibial ligament (MMTL) was transected, enabling the medial meniscus to move freely. A similar skin incision was made in sham knees, but the joint structure was not disturbed. For the sham group, both right and left knees had sham surgeries. After surgery, 4-0 silk sutures were used to close the incision using an interrupted pattern. Mice were provided analgesia via intraperitoneal injection of buprenorphine (0.5 mg/kg) every 12 hours for 72 hours, and sutures were removed after 7 days. Mice were sacrificed, at the indicated time points, by anesthesia followed with whole animal perfusion using 10% NBF, knees were harvested and fixed for 7 days in 10% NBF, decalcified for 7 days in 10% w/v EDTA, embedded in paraffin, and 10-μm sections were cut and mounted for Safranin-O/Fast Green or IF staining.
Semi-quantitative histopathologic grading was performed using a derivative of the Chambers' scoring system that has been established by the OARSI histopathology initiative as the standard method for grading of mouse cartilage degeneration. Based on this system, cartilage grading was carried out using Safranin-O/Fast Green-stained midsagittal sections. Three sections from representative levels (50 μm apart) of the medial compartment of the joint were selected for each sample and, which were evaluated in a randomized, blinded manner by 3 laboratory members. The 3 scores were averaged to calculate the section score, and the sample score was then calculated by averaging the scores obtained from the three levels. Grading was performed using the following scale: 0=normal cartilage, 0.5=loss of proteoglycan stain without cartilage damage, 1=mild superficial fibrillation, 2=fibrillation and/or clefting extending below the superficial zone, 3=mild (<25%) loss of cartilage, 4=moderate (25-50%) loss of cartilage, 5=severe (50-75%) loss of uncalcified cartilage, and 6=eburnation with >75% loss of cartilage. Grading was performed by three blinded observers (F.K., M.J.Z., and E.R.S.). Observer agreement was evaluated in pairs via calculation of a weighted kappa coefficient, using Fleiss-Cohen weights, as we have described. The F.K. versus M.J.Z. coefficient was 0.92, the F.K. versus E.R.S. coefficient was 0.94, and the M.J.Z. versus E.R.S coefficient was 0.89, all indicative of strong agreement between the observers.
Using Safranin-O/Fast Green-stained sections, the OsteoMetrics system was used to quantify the above parameters on three sections from representative levels (50 μm apart) of the medial compartment of the joint for each sample. Live images of the center of the knee joint were collected through an Olympus microscope (10× objective) outfitted with a camera, a stylus was used to trace the regions of interest (ROIs). A blinded observer quantified uncalcified articular cartilage area, total chondrocyte number and matrix-producing chondrocyte number using the built-in area calculation algorithms and quantification functions of the OsteoMeasure® system. […]

PTH1R Gas/cAMP signaling = experiment: PTH-stimulated cAMP in articular cartilage explants of sham or DMM mice treated with paroxetine; set-up: species or system mouse; conditions: paroxetine ip 5 mg/kg/day for 8 weeks, cartilage stimulated with PTH ex vivo, 30 minutes
Procedure: Methods: Destabilization of the medial meniscus (DMM) surgery was used to simulate clinical post-traumatic OA. First, we determined the role of GRK2 inhibition in PTH1R Gas-cAMP signaling: 12 week old male mice underwent sham or DMM surgery and were treated with either vehicle or the GRK2 inhibitor “paroxetine” (ip, 5 mg/kg/day), treatment was initiated at the time of surgery and continued daily until 8 weeks. Knees were harvested and articular cartilage was obtained for ex vivo analysis of Gas activity. In ex vivo culture, cartilage explants were treated with PTH as an agonist to stimulate PTH1R-Ga-cAMP signaling. Thirty minutes following PTH stimulation, cartilage tissue was homogenized and cAMP levels were measured. Then, we determined the role of GRK2 inhibition in recovering or even potentiating PTH1R signaling in OA cartilage: 12 week old male mice underwent sham or DMM surgery, and received treatment with vehicle, PTH (sc, 40 μg/kg/day) alone, the GRK2 inhibitor “paroxetine3” (ip, 5 mg/kg/day) alone, or their combination. Treatment was initiated at week 8 following DMM surgery, where OA is in progress, and continued until week 12 where mice were sacrificed. […] Results are expressed as mean values+s.e.m. with an N=5-8 mice per experimental group. […]

DMM mice [2] = experiment: Response threshold to mechanical pain stimulus in DMM mice; type: in vivo, mouse; conditions: daily treatment week 8 to 12, measured 12 weeks following DMM
Source text: Paroxetine attenuates pain sensitivity of DMM mice. Response threshold to mechanical pain stimulus measured in sham mice and DMM mice 12 weeks following DMM. DMM mice received respective daily treatments from week 8 until week 12 following DMM: vehicle (V) or Paroxetine (Px). *P<0.05 & ***P<0.001.

DMM mice [3] = experiment: Gait (stride length) in DMM mice; type: in vivo, mouse; conditions: daily treatment week 8 to 12, measured 12 weeks following DMM
Source text: Paroxetine normalizes changes in the gait of DMM mice. Stride length in centimeters measured for sham mice and DMM mice 12 weeks following DMM. DMM mice received respective daily treatments from week 8 until week 12 following DMM: vehicle (V) or Paroxetine (Px). **P<0.01 & ***P<0.001

DMM mice [4] = experiment: DMM mice treated with PTH, paroxetine or their combination: histology and histomorphometry (Example 1); type: in vivo, mouse; conditions: treatment week 8 to 12, PTH sc 40 μg/kg/day, paroxetine ip 5 mg/kg/day
Procedure: Methods: Destabilization of the medial meniscus (DMM) surgery was used to simulate clinical post-traumatic OA. First, we determined the role of GRK2 inhibition in PTH1R Gas-cAMP signaling: 12 week old male mice underwent sham or DMM surgery and were treated with either vehicle or the GRK2 inhibitor “paroxetine” (ip, 5 mg/kg/day), treatment was initiated at the time of surgery and continued daily until 8 weeks. Knees were harvested and articular cartilage was obtained for ex vivo analysis of Gas activity. In ex vivo culture, cartilage explants were treated with PTH as an agonist to stimulate PTH1R-Ga-cAMP signaling. Thirty minutes following PTH stimulation, cartilage tissue was homogenized and cAMP levels were measured. Then, we determined the role of GRK2 inhibition in recovering or even potentiating PTH1R signaling in OA cartilage: 12 week old male mice underwent sham or DMM surgery, and received treatment with vehicle, PTH (sc, 40 μg/kg/day) alone, the GRK2 inhibitor “paroxetine3” (ip, 5 mg/kg/day) alone, or their combination. Treatment was initiated at week 8 following DMM surgery, where OA is in progress, and continued until week 12 where mice were sacrificed. Knees were harvested, paraffin embedded, sectioned and stained with safranin-o and fast green for histological evaluation, OARSI scoring, and histomorphometric analysis. Results are expressed as mean values+s.e.m. with an N=5-8 mice per experimental group. Statistical analyses were performed using one ANVOA with P<0.05 representing statistical significance.

Compound	cartilage degeneration (Safranin-O and Fast Green histology) (DMM mice [1])	chondro-protective and matrix-regenerative effects (overall) (DMM mice [1])	total number of chondrocytes (DMM mice [1])	uncalcified cartilage area (DMM mice [1])	OARSI score (DMM mice [1])	number of matrix producing chondrocytes (DMM mice [1])	PTH/PTH1R-mediated cAMP production (PTH1R Gas/cAMP signaling; DMM mice)	PTH/PTH1R-mediated cAMP production (PTH1R Gas/cAMP signaling; sham mice)	pain sensitivity (response threshold to mechanical pain stimulus) (DMM mice [2])	changes in the gait (stride length) (DMM mice [3])	chondrocyte number (DMM mice [4])	number of matrix-producing (anabolic) chondrocytes (DMM mice [4])	uncalcified cartilage area (DMM mice [4])
O=C1OC2(c3ccccc31)c1ccc(O)c(O)c1Oc1c2ccc(O)c1O [gallein]	reduced	exert both a chondro-protective and a matrix-regenerative effects; also recorded: equivalent to that of paroxetine	preserved	preserved	lower	higher number							
Fc1ccc([C@@H]2CCNC[C@H]2COc2ccc3c(c2)OCO3)cc1 [paroxetine]	reduced	exert both a chondro-protective and a matrix-regenerative effects	preserved	preserved	lower	higher number	recovered	potentiated	attenuates	normalizes	increased	particular increase	increased

Reference: US20230404989A1, “GRK2 INHIBITION BY PAROXETINE AMELIORATES OSTEOARTHRITIS” (THE PENN STATE RESEARCH FOUNDATION, priority 2020, published 2023)
